Experimental data: patent US8871753B2, “Macrocyclic compounds and their use as kinase inhibitors” (Incyte Corporation, priority 2008, dated 2014)
Structures can show the parent of a compound that is named as a salt. Where two headings read alike, the source gives them in different places.

Key:
Assay type in all cases: biochemical
[1] = molecular target: T1, human JAK1 (a.a. 837-1142) (Homo sapiens, UniProt P23458); test: In vitro JAK kinase assay (HTRF, phosphorylation of a biotinylated peptide), JAK1; settings: read-out: JAK1 IC50
T1 construct: human JAK1 (a.a. 837-1142); His tag (N); made in house; host or cells: insect cells (baculovirus)
In short: (§1)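 Phosphorylation of a biotinylated peptide by the JAK kinase domain, detected by HTRF with Eu-Py20 and SA-APC. ATP was 90 μM for JAK1, 30 μM for JAK2 and 3 μM for JAK3. Reactions ran 1 h at room temperature and were stopped with EDTA, followed by 40 min antibody binding.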

[2] = molecular target: T2, human JAK2 (a.a. 828-1132) (Homo sapiens, UniProt O60674); test: In vitro JAK kinase assay (HTRF, phosphorylation of a biotinylated peptide), JAK2
T2 construct: JAK2 (a.a. 828-1132); His tag (N); made in house; host or cells: insect cells (baculovirus)
In short: as §1

[3] = molecular target: T3, human JAK3 (a.a. 781-1124) (Homo sapiens, UniProt P52333); test: In vitro JAK kinase assay (HTRF, phosphorylation of a biotinylated peptide), JAK3
T3 construct: JAK3 (a.a. 781-1124); His tag (N); made in house; host or cells: insect cells (baculovirus)
In short: as §1

TYK2 = TYK2 (Homo sapiens, UniProt P29597); test: TYK2 kinase inhibition (Table A1)
[4] = molecular target: T4, Recombinant Human Anaplastic Lymphoma Kinase (Homo sapiens, UniProt Q9UM73); test: ALK HTRF kinase assay
T4 construct: purchased Invitrogen, Carlsbad, Calif
In short: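 TR-FRET read-out (Eu anti-pTyr antibody + streptavidin-APC) of biotin-peptide phosphorylation by recombinant human enzyme; IC50 by sigmoidal fit with top/bottom baselines and Hill slope.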

[5] = compound at a concentration of 500 nM or 1 mM (not specified), cells shown as percentage
[6] = method AA1 (90 μM ATP) or AA2 (1000 μM ATP), not stated per value
[7] = method AA1 (30 μM ATP) or AA2 (1000 μM ATP), not stated per value
[8] = method AA1 (3 μM ATP) or AA2 (1000 μM ATP), not stated per value
[9] = compound at 500 nM or 1 mM, 90 μM ATP
[10] = Table B1, cells without percent sign

T4 sequence (Q9UM73 19-1620): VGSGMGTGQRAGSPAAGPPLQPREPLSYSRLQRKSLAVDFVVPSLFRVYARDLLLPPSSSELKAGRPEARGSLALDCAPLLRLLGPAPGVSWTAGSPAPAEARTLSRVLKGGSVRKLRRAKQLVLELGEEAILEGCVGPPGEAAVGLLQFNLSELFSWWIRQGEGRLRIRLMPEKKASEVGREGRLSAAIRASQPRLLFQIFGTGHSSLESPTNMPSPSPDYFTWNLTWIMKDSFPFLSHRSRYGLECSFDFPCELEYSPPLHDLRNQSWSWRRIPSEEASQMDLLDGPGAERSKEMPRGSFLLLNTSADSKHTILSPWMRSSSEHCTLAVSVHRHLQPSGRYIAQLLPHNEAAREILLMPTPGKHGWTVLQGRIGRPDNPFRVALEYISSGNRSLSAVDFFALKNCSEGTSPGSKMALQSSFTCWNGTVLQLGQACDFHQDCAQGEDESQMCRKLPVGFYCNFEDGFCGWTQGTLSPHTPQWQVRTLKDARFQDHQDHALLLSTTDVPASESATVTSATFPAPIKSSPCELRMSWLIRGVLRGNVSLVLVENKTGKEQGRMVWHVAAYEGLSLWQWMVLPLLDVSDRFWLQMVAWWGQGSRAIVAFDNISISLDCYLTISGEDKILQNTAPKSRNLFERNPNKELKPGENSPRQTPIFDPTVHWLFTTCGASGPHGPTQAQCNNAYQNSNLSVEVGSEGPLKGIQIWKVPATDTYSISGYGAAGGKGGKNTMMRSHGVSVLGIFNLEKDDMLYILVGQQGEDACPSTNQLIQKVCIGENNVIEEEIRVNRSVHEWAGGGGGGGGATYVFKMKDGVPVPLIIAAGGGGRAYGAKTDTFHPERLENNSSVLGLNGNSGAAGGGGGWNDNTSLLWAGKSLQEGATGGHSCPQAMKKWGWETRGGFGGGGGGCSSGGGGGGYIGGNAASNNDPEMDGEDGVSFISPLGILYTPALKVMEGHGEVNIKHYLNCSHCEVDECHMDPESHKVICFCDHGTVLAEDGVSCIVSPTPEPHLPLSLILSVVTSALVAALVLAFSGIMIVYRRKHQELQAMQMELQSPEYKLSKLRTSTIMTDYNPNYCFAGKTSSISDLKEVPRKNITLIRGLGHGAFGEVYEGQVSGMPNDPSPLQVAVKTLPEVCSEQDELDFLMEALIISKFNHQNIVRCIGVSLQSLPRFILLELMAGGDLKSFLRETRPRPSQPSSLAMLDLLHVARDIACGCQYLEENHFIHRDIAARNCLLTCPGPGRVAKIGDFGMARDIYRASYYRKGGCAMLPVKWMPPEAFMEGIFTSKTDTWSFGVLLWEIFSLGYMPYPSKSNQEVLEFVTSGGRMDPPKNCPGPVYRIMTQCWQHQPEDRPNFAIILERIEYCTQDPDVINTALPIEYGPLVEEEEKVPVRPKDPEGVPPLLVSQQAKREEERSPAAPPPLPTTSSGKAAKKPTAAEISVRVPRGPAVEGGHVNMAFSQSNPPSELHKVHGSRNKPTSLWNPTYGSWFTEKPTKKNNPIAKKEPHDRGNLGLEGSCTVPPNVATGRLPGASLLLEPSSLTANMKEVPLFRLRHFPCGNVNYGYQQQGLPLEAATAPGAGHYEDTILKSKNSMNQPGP
T2 sequence (O60674 828-1132): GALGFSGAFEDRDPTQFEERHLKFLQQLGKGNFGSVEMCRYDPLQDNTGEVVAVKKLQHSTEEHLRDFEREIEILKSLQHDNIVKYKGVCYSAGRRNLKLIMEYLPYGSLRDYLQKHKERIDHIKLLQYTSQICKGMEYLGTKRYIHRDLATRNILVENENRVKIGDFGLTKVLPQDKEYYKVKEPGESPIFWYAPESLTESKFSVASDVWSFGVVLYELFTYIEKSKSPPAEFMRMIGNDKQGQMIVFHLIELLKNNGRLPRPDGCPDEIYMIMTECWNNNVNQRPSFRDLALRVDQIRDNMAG
T3 sequence (P52333 781-1124): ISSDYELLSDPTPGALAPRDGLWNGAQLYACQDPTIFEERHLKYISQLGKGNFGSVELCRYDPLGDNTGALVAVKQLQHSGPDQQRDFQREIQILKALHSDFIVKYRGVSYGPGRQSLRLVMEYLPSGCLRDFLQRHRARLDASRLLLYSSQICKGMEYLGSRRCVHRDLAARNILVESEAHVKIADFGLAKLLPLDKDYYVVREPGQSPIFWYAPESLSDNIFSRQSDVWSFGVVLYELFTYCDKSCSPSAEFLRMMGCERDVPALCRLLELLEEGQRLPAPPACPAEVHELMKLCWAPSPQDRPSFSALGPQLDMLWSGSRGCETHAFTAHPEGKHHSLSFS
T1 sequence (P23458 849-1154): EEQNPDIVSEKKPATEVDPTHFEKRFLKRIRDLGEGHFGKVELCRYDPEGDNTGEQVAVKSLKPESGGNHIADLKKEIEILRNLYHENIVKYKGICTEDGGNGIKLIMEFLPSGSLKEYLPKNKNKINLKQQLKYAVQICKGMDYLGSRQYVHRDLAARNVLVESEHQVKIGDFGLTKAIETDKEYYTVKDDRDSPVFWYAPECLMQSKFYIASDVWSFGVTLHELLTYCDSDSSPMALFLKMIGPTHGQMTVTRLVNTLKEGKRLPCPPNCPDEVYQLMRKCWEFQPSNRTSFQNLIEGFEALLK
Sequence of TYK2 (P29597 whole entry): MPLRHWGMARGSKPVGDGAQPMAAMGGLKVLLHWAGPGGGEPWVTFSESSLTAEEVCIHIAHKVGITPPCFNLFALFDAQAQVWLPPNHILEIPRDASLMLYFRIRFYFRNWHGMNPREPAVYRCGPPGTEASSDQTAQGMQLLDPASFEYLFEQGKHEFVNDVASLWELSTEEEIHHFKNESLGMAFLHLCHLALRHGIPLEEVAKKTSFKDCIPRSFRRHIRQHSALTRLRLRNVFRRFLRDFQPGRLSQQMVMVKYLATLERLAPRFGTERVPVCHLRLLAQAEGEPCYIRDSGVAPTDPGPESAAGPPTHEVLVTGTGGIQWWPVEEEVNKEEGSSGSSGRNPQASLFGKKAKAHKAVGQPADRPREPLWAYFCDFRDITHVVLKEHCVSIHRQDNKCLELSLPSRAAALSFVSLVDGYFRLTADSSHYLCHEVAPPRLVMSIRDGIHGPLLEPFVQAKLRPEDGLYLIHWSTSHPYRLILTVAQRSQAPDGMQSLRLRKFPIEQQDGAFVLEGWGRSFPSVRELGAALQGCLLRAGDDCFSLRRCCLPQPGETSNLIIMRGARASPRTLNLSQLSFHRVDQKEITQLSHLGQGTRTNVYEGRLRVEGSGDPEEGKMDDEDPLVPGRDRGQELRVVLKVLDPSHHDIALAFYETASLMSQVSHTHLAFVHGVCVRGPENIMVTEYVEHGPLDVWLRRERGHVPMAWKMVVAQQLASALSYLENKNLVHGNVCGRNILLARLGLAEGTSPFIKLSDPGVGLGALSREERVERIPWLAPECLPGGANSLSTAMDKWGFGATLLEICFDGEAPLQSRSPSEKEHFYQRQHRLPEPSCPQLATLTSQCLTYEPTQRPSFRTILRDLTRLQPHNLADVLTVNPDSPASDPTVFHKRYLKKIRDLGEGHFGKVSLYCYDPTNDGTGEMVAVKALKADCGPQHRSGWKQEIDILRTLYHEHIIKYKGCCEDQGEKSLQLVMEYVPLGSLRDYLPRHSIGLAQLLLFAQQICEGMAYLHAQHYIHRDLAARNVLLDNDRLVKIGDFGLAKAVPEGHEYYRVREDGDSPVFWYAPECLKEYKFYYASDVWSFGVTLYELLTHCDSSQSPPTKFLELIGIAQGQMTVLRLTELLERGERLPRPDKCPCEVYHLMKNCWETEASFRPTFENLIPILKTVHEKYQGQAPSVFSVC

| Structure (SMILES) | IC50 ([1]; Table B1) | IC50 ([2]; Table B1) | IC50 ([3]; Table B1) | IC50 (TYK2; Table B1) | ALK % of inhibition at a concentration of 500 nM or 1 mM [4, 5] | further results |
| --- | --- | --- | --- | --- | --- | --- |
| O=C(Nc1ccc2cc1CCc1cccc(c1)Nc1ncc(Cl)c(n1)N2)Nc1ccccc1C(F)(F)F [Example B111, N-[6-Chloro-2,4,8,22-tetraazatetracyclo[14.3.1.1(3,7).1(9,13)]docosa-1(20), 3(22),4,6,9(21),10,12,16,18-nonaen-12-yl]-N′-[2-(trifluoromethyl)phenyl]urea trifluoroacetate] | 3.7 nM | 6 nM | 21 nM | 5 nM | 14% |  |
| O=C(Nc1cccc(C(F)(F)F)c1)Nc1ccc2cc1CCc1cccc(c1)Nc1ncc(Cl)c(n1)N2 [Example B112, N-[6-Chloro-2,4,8,22-tetraazatetracyclo[14.3.1.1(3,7).1(9,13)]docosa-1(20), 3(22),4,6,9(21),10,12,16,18-nonaen-12-yl]-N′-[3-(trifluoromethyl)phenyl]urea trifluoroacetate] | 11 nM | 34 nM | 165 nM | 33 nM | 3.3% |  |
| COc1cccc(NC(=O)N2CCC(C(=O)Nc3ccc4cc3CCc3cccc(c3)Nc3ncc(Cl)c(n3)N4)CC2)c1 [Example A38, N(4)-[6-Chloro-2,4,8,22-tetraazatetracyclo[14.3.1.1(3,7).1(9,13)]docosa-1(20),3(22),4,6,9(21),10,12,16,18-nonaen-12-yl]-N(1)-(3-methoxyphenyl)piperidine-1,4-dicarboxamide trifluoroacetate] |  |  |  |  |  | IC50 [1, 6]: 6.6 nM; IC50 [2, 7]: 16 nM; IC50 [3, 8]: 46 nM; IC50 (TYK2): 48 nM; ALK % of inhibition at a concentration of 500 nM or 1 mM [4, 9]: 55% |
| COc1ccccc1NC(=O)Nc1ccc2cc1CCc1cccc(c1)Nc1ncc(Cl)c(n1)N2 [Example B102, N-[6-Chloro-2,4,8,22-tetraazatetracyclo[14.3.1.1(3,7).1(9,13)]docosa-1(20), 3(22),4,6,9(21),10,12,16,18-nonaen-12-yl]-N′-(2-methoxyphenyl)urea trifluoroacetate] | 2 nM | 3.8 nM | 33 nM | 8.9 nM | 54% |  |
| O=C(Nc1ccc2cc1CCc1cccc(c1)Nc1ncc(Cl)c(n1)N2)c1cccc(F)c1 [Example B48, N-[6-Chloro-2,4,8,22-tetraazatetracyclo[14.3.1.1(3,7).1(9,13)]docosa-1(20), 3(22),4,6,9(21),10,12,16,18-nonaen-12-yl]-3-fluorobenzamide trifluoroacetate] | 0.96 nM | 0.44 nM | 2.6 nM | 1.7 nM |  | IC50 [4, 10]: 160 nM |
| O=C(Nc1ccc2cc1CCc1cccc(c1)Nc1ncc(Cl)c(n1)N2)Nc1ccccc1-c1ccccc1 [Example B130, N-Biphenyl-2-yl-N′-[6-chloro-2,4,8,22-tetraazatetracyclo[14.3.1.1(3,7).1(9,13)]docosa-1(20),3(22),4,6,9(21),10,12,16,18-nonaen-12-yl]urea trifluoroacetate] | 11 nM | 11 nM | 331 nM | 64 nM | 0% |  |
| CC1CN(C(=O)Nc2ccc3cc2CCc2cncc(c2)Nc2ncc(Cl)c(n2)N3)CCN1c1ccccc1 (centres unmarked) [Example B320, N-[6-Chloro-2,4,8,18,22-pentaazatetracyclo[14.3.1.1(3,7).1(9,13)]docosa-1(20),3(22),4,6,9(21),10,12,16,18-nonaen-12-yl]-3-methyl-4-phenylpiperazine-1-carboxamide tris(trifluoroacetate)] | 79 nM | > 400 nM | > 400 nM | > 400 nM |  | ALK % of inhibition at a concentration of 500 nM or 1 mM ([4]; percentage inhibition of the example compound at a concentration of 500 nM or 1 mM (not specified which)): 57% |
| Cn1cc(C(=O)N2CC[C@H](NC(=O)Nc3ccc4cc3CCc3cncc(c3)Nc3ncc(Cl)c(n3)N4)C2)cn1 [Example B269, N-[6-Chloro-2,4,8,18,22-pentaazatetracyclo[14.3.1.1(3,7).1(9,13)]docosa-1(20),3(22),4,6,9(21),10,12,16,18-nonaen-12-yl]-N′-{(3S)-1-[(1-methyl-1H-pyrazol-4-yl)carbonyl]pyrrolidin-3-yl}urea bis(trifluoroacetate)] | 13 nM | 409 nM | > 10000 nM | 727 nM | 10% |  |
| N#Cc1ccc(C(=O)N2CC[C@H](NC(=O)Nc3ccc4cc3CCc3cccc(c3)Nc3ncc(Cl)c(n3)N4)C2)cc1 [Example B235, N-[6-Chloro-2,4,8,22-tetraazatetracyclo[14.3.1.1(3,7).1(9,13)]docosa-1(20),3(22),4,6,9(21),10,12,16,18-nonaen-12-yl]-N′-[(3S)-1-(4-cyanobenzoyl)pyrrolidin-3-yl]urea trifluoroacetate] | 6 nM | 21 nM | 213 nM | 36 nM | 7.3% |  |
| O=C(Nc1ccccc1)Nc1cc2cc(c1)Nc1nc(ncc1Cl)Nc1cccc(c1)CC2 [Example B202, N-[6-Chloro-2,4,8,22-tetraazatetracyclo[14.3.1.1(3,7).1(9,13)]docosa-1(20),3(22),4,6,9(21),10,12,16,18-nonaen-11-yl]-N′-phenylurea trifluoroacetate] | 36 nM | 56 nM | 101 nM | 205 nM |  | IC50 [4, 10]: 3600 nM |
| O=C(Nc1ccc2cc1CCc1cncc(c1)Nc1ncc(Cl)c(n1)N2)N1CCN(c2ccc(F)cc2)CC1 [Example B297, N-[6-Chloro-2,4,8,18,22-pentaazatetracyclo[14.3.1.1(3,7).1(9,13)]docosa-1(20),3(22),4,6,9(21),10,12,16,18-nonaen-12-yl]-4-(4-fluorophenyl)piperazine-1-carboxamide tris(trifluoroacetate)] | 27 nM | 67 nM | > 400 nM | 36 nM | 66% |  |
| O=C(NCc1ccccc1)N1CCN(c2cc(-c3cc4cc(c3)Nc3ncc(Cl)c(n3)Nc3cccc(c3)OCC4)ccn2)CC1 [Example D45, N-Benzyl-4-{4-[6-chloro-14-oxa-2,4,8,23-tetraazatetracyclo[15.3.1.1(3,7).1(9,13)]tricosa-1(21),3(23),4,6,9(22),10,12,17,19-nonaen-19-yl]pyridin-2-yl}piperazine-1-carboxamide bis(trifluoroacetate)] |  |  |  |  |  | IC50 ([1]; Table D1): 8.1 nM; IC50 ([2]; Table D1): 3 nM; IC50 ([3]; Table D1): 36 nM; IC50 (TYK2; Table D1): 13 nM; IC50 ([4]; Table D1, 90 μM ATP): 340 nM |
| O=C(CC1CCN(C(=O)Nc2ccccc2F)CC1)Nc1ccc2cc1CCc1cncc(c1)Nc1ncc(Cl)c(n1)N2 [Example A146, 4-(2-{[6-Chloro-2,4,8,18,22-pentaazatetracyclo[14.3.1.1(3,7).1(9,13)]docosa-1(20),3(22),4,6,9(21),10,12,16,18-nonaen-12-yl]amino}-2-oxoethyl)-N-(2-fluorophenyl)piperidine-1-carboxamide bis(trifluoroacetate)] |  |  |  |  |  | IC50 [1, 6]: 0.9 nM; IC50 [2, 7]: 3.6 nM; IC50 [3, 8]: > 100 nM; IC50 (TYK2): 7.1 nM; ALK % of inhibition at a concentration of 500 nM or 1 mM [4, 9]: 34% |
| O=C(CC1CCN(C(=O)c2ccon2)CC1)Nc1ccc2cc1CCc1cncc(c1)Nc1ncc(Cl)c(n1)N2 [Example A135, N-[6-Chloro-2,4,8,18,22-pentaazatetracyclo[14.3.1.1(3,7).1(9,13)]docosa-1(20),3(22),4,6,9(21),10,12,16,18-nonaen-12-yl]-2-[1-(isoxazol-3-ylcarbonyl)piperidin-4-yl]acetamide bis(trifluoroacetate)] |  |  |  |  |  | IC50 [1, 6]: 0.4 nM; IC50 [2, 7]: 2.3 nM; IC50 [3, 8]: 79 nM; IC50 (TYK2): 0.9 nM; ALK % of inhibition at a concentration of 500 nM or 1 mM [4, 9]: 30% |
| O=C(CCC1CCNCC1)Nc1ccc2cc1CCc1cccc(c1)Nc1ncc(Cl)c(n1)N2 [Example A116, N-[6-Chloro-2,4,8,22-tetraazatetracyclo[14.3.1.1(3,7).1(9,13)]docosa-1(20),3(22),4,6,9(21),10,12,16,18-nonaen-12-yl]-3piperidin-4-ylpropanamide bis(trifluoroacetate)] |  |  |  |  |  | IC50 [1, 6]: 14 nM; IC50 [2, 7]: 20 nM; IC50 [3, 8]: 44 nM; IC50 (TYK2): 33 nM; ALK % of inhibition at a concentration of 500 nM or 1 mM [4, 9]: 27% |
| COc1cccc(CN2CCN(Cc3cc4cc(c3)Nc3nc(ncc3Cl)Nc3cccc(c3)CC4)CC2)c1 [Example B198, 6-Chloro-11-{[4-(3-methoxybenzyl)piperazin-1-yl]methyl}-2,4,8,22-tetraazatetracyclo[14.3.1.1(3,7).1(9,13)]docosa-1(20),3(22),4,6,9(21),10,12,16,18-nonaene tris(trifluoroacetate)] | 39 nM | 10 nM | 161 nM | 289 nM |  | IC50 [4, 10]: > 10000 nM |
